# Assay results: publication PMC7503308, “A Novel Urease Inhibitor of Ruminal Microbiota Screened through Molecular Docking” (International Journal of Molecular Sciences, 2020)
# “Also recorded” adds a separate entry of the source.
# What was measured:
# Caco-2 cells = experiment: CCK8 colorimetric cytotoxicity assay; assay type: cell-based; conditions: concentration below 100 μM, 24 h, p > 0.05
# Protocol: A standard CCK8 colorimetric assay was employed for the evaluation of cytotoxic activity of compound 6238-0047 using 96-well flat bottomed microplates. Dulbecco’s Modified Eagle Medium (GIBCO) with 10% FBS (fetal bovine serum, FBS, Gibco) and 1% NEAA was used for the culturing of Caco-2 cells (ATCC, Manassas, VA, USA), and the medium was supplemented with 100 μg/mL of streptomycin and 100 IU/mL of penicillin. The medium was kept in 5% CO2 and incubated at 37 °C. The exponentially grown cells were harvested, counted using a hemocytometer and diluted with the medium. The cell culture was diluted to a density of 1 × 10^5 cells/mL and transferred into a 96-well plate with 135 μL or […]. The medium was incubated for 24 h for cell attachment. Following this, 15 μL of compounds with different final concentrations of 1, 10, 25, 50, and 100 μM in the experimental group and fresh medium as a control group, were added to a plate with five replicates for each. After 24 h of incubation at 37 °C and kept in 5% CO2, 15 μL of CCK8 was added to each well and after 2 h the absorbance was measured at 450 nm using a microplate reader. The formula for calculating the relative cell viability was as follows:Relative cell viability (%) = absorbance of experimental group/absorbance of control group × 100%
# ruminal microbial urease = experiment: Kinetic characterization of urease inhibition (nonlinear Michaelis-Menten fitting); assay type: biochemical, rumen bacteria of Chinese Holstein dairy cows
# Protocol: Rumen fluid samples were collected from five Chinese Holstein dairy cows with permanent rumen fistula 3 h after feeding a total mixed ration in the morning. All the operations were conducted in accordance with the protocol approved by the Animal Care and Use Committee for Livestock of the Institute of Animal Sciences, Chinese Academy of Agricultural Sciences (Permit Number: IAS2019-14, Permit Date: 22-03-2019). All rumen fluid samples were filtered by a six layer sterilized medical gauze and mixed in a sterilized beaker before being evenly distributed into different 50 mL tubes and stored in liquid nitrogen. The deforested samples were centrifuged at 12,000× g for 10 min at 4 °C, then the supernatant was removed from the tube. The remaining sediments were resuspended in a HEPES buffer solution (pH 7.5, 50 mM) and then centrifuged at 12,000× g for 10 min at 4 °C. The supernatant was discarded and the remaining rumen bacteria were collected and stored at −80 °C for later urease extraction. All the sample handing processes were conducted on an ice bath. Before each urease inhibition assay, 2 g of rumen bacteria were taken from the fridge and resuspended in a HEPES buffer followed by lysis through a high-pressure cell press JG-1A (Ningbo Scientz Biotechnology Co., Ltd., Ningbo, China). The hollow cylindrical sample loading element was placed in −80 °C for 10 min before the high-pressure lysis at 22,000 psi. […] The kinetic of the compound was determined by varying the concentration of urea in the presence of different compound 6238-0047 concentrations of 0.25 and 0.5 mM in the assay mixture. […] Maximal initial velocities were determined from the initial linear portion of the absorbance up to 10 min after the addition of the enzyme. Kinetic parameters Km and Vmax were calculated by the nonlinear fitting of different substrate concentrations against the velocities of the reaction at each different concentrations of compound 6238-0047 using the GraphPad Prism software as mentioned before.
# ruminal microbiota = experiment: Chemical degradation rate of compound in ruminal microbial fermentation (UPLC-HRMS); conditions: 100 μM
# Protocol: The generation fermentation experiments were performed in anaerobic tubes containing 5 mL of an anaerobic medium, and in total, six generations of fermentation were performed. Altogether 54 tubes were prepared with nine tubes for each generation of fermentation. […] For the AHA treated group, the AHA working solution was prepared by diluting 3.76 mg AHA with 10 mL of methanol (5000 μM AHA). […] For the control group, the working solution contained only the solvent (methanol). All the working solutions were filtered by 0.22 μm of a membrane filter (Millipore Express PES Membrane, MILLEX GP). For each group, 100 µL of the working solution was added to each tube to mix with the anaerobic medium. […] Before the inoculation of each tube in each generation with fresh rumen fluid, 100 µL of the anaerobic urea solution was extracted from the anaerobic bottle using a syringe and filtered through 0.22 μm membrane filters, and then injected to the anaerobic tube to make the urea concentration at 16.65 mM in the tube. […] The NH4-N and Urea-N concentration was measured by the Berthelot alkaline phenol-hypochlorite method and the diacetyl monoxime method kit (Nanjing Jiancheng Co., Nanjing, China) following the manufacturer’s protocol. […]
smiles,measurement,setting,value
"COc1ccc(-c2ccc(CCC(=O)O)n2NC(N)=O)cc1 [6238-0047, 3-[1-[(aminocarbonyl)amino]-5-(4-methoxyphenyl)-1H-pyrrol-2-yl] propanoic acid]",Relative cell viability of Caco-2 cell culture,Caco-2 cells,no significant adverse effect; also recorded: no significant influence; also recorded: no cytotoxic effect
same,Vmax,ruminal microbial urease; 0.25 mM of compound,12.58 µM/min
same,Vmax,ruminal microbial urease; 0.5 mM of compound,9.67 µM/min
same,Inhibition mode,"ruminal microbial urease; from change of Km, Vmax and Vmax/Km",mixed type inhibitor
same,24 h degradation rate,ruminal microbiota; first-generation ruminal microbial culture,3.32%
same,24 h degradation rate,ruminal microbiota; sixth generation ruminal microbial culture,16.00%
